Results: publication PMC9732823, “Discovery of Dual Aβ/Tau Inhibitors and Evaluation of Their Therapeutic Effect on a Drosophila Model of Alzheimer’s Disease” (ACS Chemical Neuroscience, 2022)

Tests used:
Aβ42 = target: T1, Aβ42 (Homo sapiens, UniProt P05067); assay: Inhibition of Aβ42 aggregation in intact E. coli cells overexpressing Aβ42 (ThS fluorescence); format: cell-based, Escherichia coli
T1 construct: expressed in transfected cells; host or cells: Escherichia coli BL21 (DE3), pET28a
Outline: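 E. coli BL21(DE3) expressing Met-Aβ42 grown in M9 with 250 μM ThS, induced with IPTG at OD600 0.6 alongside 10 μM compound, then overnight at 37 °C. ThS emission at 485 nm (ex 440 nm) normalised to OD600. 100% = induced cells without drug, 0% = non-induced cells.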

[1] = system: Arctic Aβ42 Drosophila flies; assay: Lifespan analysis in Arctic Aβ42 Drosophila flies; conditions: 20 μM in fly food; days 5, 10, 20 post-eclosion
Experimental: As longevity is a phenotype that can be rapidly measured in this in vivo AD model, we first assessed changes in Drosophila’s lifespan with and without treatment with 22 and 23 (20 μM). […] Doxycycline was tested at 50 μM, a concentration used in similar previous experiments.[59]
(§1) The transactivating protein GAL4 is placed under the control of a specific promoter, with its own spatial and temporal patterns, in this case, Elav, whereas the upstream activation sequence (UAS) localized upstream, the locus controlled by the UAS-Gal4; in our study, UAS expresses construct for the E22G variant of Aβ42 (Arctic Aβ42) (AlzArc2).[56],[64] Around 150 flies (half female/male) for each compound tested were collected and divided into groups of 25 flies. At the top of the media, 25 μL of doxycycline (50 μM), 22 (20 μM), or 23 (20 μM) were added fresh anytime the flies were flipped.
Briefly, males and females 25 per vial were kept at 25 °C.

Tau protein = target: T2, Tau protein (Homo sapiens, UniProt P10636); assay: Inhibition of Tau aggregation in intact E. coli cells overexpressing Tau (ThS fluorescence); format: cell-based, Escherichia coli
T2 construct: expressed in transfected cells; host or cells: Escherichia coli BL21 (DE3) with pTARA and pRKT42
Outline: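 E. coli BL21(DE3) expressing four-repeat Tau, arabinose-induced in M9 with 25 μM ThS, grown overnight at 37 °C with compound at 10 μM final. ThS emission at 485 nm (excitation 440 nm) normalized to ABS600; 100% = induced DMSO control, 0% = noninduced cells.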

[2] = system: Arctic Aβ42 Drosophila flies; assay: Climbing assay in Arctic Aβ42 Drosophila flies; conditions: 20 μM in fly food
Experimental: Thus, we performed behavioral tests to assess the climbing abilities of Aβ42Drosophila flies with and without treatment with 22 (20 μM), 23 (20 μM), and doxycycline (50 μM), compared to control flies.
as §1
Briefly, males and females 25 per vial were kept at 25 °C. The climbing test was performed on days 7, 14, and 21 after birth. […] The protocol was repeated 10 times at 5-min intervals.

[3] = intact E. coli cells, compound 10 μM, mean ± SEM of four independent experiments, 10 µM

T1 sequence (P05067 672-713 limits assumed): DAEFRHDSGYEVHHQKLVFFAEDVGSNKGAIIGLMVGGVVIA
T2 sequence (P10636 1-441 isoform P10636-8): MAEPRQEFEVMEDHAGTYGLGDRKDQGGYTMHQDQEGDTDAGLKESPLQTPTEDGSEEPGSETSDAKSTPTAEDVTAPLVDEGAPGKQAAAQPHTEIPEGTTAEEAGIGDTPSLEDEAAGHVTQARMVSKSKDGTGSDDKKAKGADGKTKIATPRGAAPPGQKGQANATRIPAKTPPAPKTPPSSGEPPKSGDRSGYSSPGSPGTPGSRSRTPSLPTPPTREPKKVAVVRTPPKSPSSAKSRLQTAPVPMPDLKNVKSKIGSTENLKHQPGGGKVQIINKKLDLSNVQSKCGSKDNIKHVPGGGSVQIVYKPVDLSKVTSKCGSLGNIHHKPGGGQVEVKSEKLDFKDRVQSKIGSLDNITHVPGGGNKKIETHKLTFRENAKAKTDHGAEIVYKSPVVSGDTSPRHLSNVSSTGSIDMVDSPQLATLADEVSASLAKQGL

CN(C)CCN1C(=O)S/C(=C\c2ccc3c(c2)C(C)(C)c2cc(/C=C4\SC(=O)N(CCN(C)C)C4=O)ccc2-3)C1=O [Compound 23, (5Z,5′Z)-5,5′-((9,9-Dimethyl-9H-fluorene-2,7-diyl)bis(methanylylidene))bis(3-(2-(dimethylamino)ethyl)thiazolidine-2,4-dione)]
% inhibition Aβ42 aggregation @ 10 μM (Aβ42; [3]): 44.8 ± 4.7% | inhibition at 10 µM (Aβ42; read-out: % inhibition Aβ42 aggregation @ 10 μM, intact E. coli cells, compound 10 μM, mean ± SEM of four independent experiments): > 40% | lifespan of Aβ42 Drosophila flies [1]: increase in longevity | % inhibition Tau aggregation @ 10 μM (Tau protein; [3]): 41.9 ± 3.9% | inhibition at 10 µM (Tau protein; read-out: % inhibition Tau aggregation @ 10 μM, intact E. coli cells, compound 10 μM, mean ± SEM of four independent experiments): > 40% | climbing abilities of Aβ42 Drosophila flies on day 21 ([2]; day 21): no difference between the treated and untreated flies | climbing abilities of Aβ42 Drosophila flies ([2]; days 7, 14, 21 post-eclosion): partially recovered phenotype that lasted until day 14
